Measured values taken from ChEMBL document CHEMBL1201862, “PubChem BioAssay data set” (2004).
Activity calls are given as the source filed them.

Assays:
Paired box protein Pax-8 = Paired box protein Pax-8 (Homo sapiens, UniProt Q06710); experiment: PAX8 transcriptional activity inhibition in RMG-I – RMG-I cells, luciferase, cherry-pick, dose response (AID 687027); type: functional, cell-based;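 further: luciferase reporter driven by Pax8 target thyroperoxidase promoter measured by SteadyGlo luminescence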
[1] = OVCAR-3 cell viability loss – plate reader, dry powder samples, PAX8 inhibitor project, dose response (AID 743044); type: functional, cell-based
[2] = molecular target: Heat shock protein HSP 90-alpha (Homo sapiens, UniProt P07900); type: functional, organism-based
HeLa = experiment: ATP-based viability loss in HeLa cells – cell-based, CellTiter-Glo luminescence, cherry-pick samples, cytotoxicity control for MITF activator project, dose response (AID 540259); type: functional; conditions: Homo sapiens
[3] = molecular target: Induced myeloid leukemia cell differentiation protein Mcl-1 (Homo sapiens, UniProt Q07820); type: functional
Protein skinhead-1 = molecular target: T1, Protein skinhead-1 (Caenorhabditis elegans, UniProt P34707); type: functional
T1 sequence (P34707 whole entry): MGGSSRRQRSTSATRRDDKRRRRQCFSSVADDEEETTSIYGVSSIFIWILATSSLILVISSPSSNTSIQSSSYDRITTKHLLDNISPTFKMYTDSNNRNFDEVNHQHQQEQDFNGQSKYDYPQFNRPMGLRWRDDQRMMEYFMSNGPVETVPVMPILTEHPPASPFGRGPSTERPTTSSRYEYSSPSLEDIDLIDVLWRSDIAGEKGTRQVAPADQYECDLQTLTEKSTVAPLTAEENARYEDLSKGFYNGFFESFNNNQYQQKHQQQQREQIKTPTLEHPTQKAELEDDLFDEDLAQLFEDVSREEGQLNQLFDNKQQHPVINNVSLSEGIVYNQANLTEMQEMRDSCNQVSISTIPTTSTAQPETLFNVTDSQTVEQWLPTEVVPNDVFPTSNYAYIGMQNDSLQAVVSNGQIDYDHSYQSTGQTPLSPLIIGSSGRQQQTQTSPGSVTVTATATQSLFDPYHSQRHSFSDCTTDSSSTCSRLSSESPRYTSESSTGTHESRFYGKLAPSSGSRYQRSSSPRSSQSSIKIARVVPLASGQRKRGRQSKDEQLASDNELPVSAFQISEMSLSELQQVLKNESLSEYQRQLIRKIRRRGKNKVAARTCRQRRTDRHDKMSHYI

[4] = OVCAR8 cell viability loss – plate reader, dry powder samples, PAX8 project, dose response (AID 743197); type: functional, cell-based; conditions: OVCAR-8
[5] = blockers of HIV-1 envelope-mediated cell-cell fusion – cherry-pick, dose response (AID 652057); type: functional, cell-based
[6] = HIV-1 AD8 envelope cell-cell fusion blockers – cherry-pick, dose response (AID 652062); type: functional, cell-based;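 further: luciferase signal from cell-cell fusion driven by HIV-1 clade B AD8 Env; potency is for inhibitors of fusion seen as a drop in luminescence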
[7] = molecular target: T2, DNA dC->dU-editing enzyme APOBEC-3G (Homo sapiens, UniProt Q9HC16); experiment: Dose Response confirmation of small molecule APOBEC3G DNA Deaminase Inhibitors via a fluorescence-based single-stranded DNA deaminase assay. [Related pubchem assays (depositor defined):AID493012, AID493028]; type: functional
Fatty acid synthase = Fatty acid synthase (Homo sapiens, UniProt P49327); experiment: inhibition of human FAS-TE enzyme activity – biochemical, kinetic fluorescence intensity, dose response (AID 624326); type: functional;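 further: rate of fluorescence rise from hydrolysis of a fluorogenic O-methyl fluorescein ester substrate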
[8] = A cytotoxicity screen of small molecule inhibitors of the PhoP region in Salmonella typhi identified in the primary screen. [Related pubchem assays: 1850, 1864, 1985 ]; type: functional
[9] = molecular target: T2, DNA dC->dU-editing enzyme APOBEC-3G; type: functional
[10] = molecular target: DNA dC->dU-editing enzyme APOBEC-3A (Homo sapiens, UniProt P31941); experiment: Dose Response confirmation of small molecule APOBEC3A DNA Deaminase Inhibitors via a fluorescence-based single-stranded DNA deaminase assay. [Related pubchem assays (depositor defined):AID493011, AID493024]; type: functional
[11] = viability of uninfected HEp-2 cells – cell-based, HTS, cytotoxicity control for RSV inhibitor project, dose response (AID 2410); type: functional; conditions: human respiratory syncytial virus
[12] = molecular target: T3, Carboxy-terminal domain RNA polymerase II polypeptide A small phosphatase 1 (Homo sapiens, UniProt Q9GZU7); experiment: CTDSP1 inhibitors, concentration-response, biochemical, absorbance readout, ultra-high-throughput screen actives (AID 540297); type: functional
T3 sequence (Q9GZU7 whole entry): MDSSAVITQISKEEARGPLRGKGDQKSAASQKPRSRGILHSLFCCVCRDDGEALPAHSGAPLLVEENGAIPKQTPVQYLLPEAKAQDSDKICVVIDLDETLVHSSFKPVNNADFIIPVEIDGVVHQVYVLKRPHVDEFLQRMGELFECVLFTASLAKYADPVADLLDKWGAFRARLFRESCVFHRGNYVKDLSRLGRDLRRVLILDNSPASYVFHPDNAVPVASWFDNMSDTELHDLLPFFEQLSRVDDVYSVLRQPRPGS

Large T antigen = Large T antigen (Simian virus 40, UniProt P03070); type: functional, Betapolyomavirus macacae;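 further: Confirmatory-stage PubChem screen for compounds that inhibit SV40 T antigen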
[13] = molecular target: T4, Short transient receptor potential channel 4 (Mus musculus, UniProt Q9QUQ5); experiment: calcium entry via TRPC4 opening agents – cell-based, HEK293 TRPC4/mu-opioid, Fluo-4 calcium, dose response (AID 434937); type: functional
T4 sequence (Q9QUQ5 whole entry): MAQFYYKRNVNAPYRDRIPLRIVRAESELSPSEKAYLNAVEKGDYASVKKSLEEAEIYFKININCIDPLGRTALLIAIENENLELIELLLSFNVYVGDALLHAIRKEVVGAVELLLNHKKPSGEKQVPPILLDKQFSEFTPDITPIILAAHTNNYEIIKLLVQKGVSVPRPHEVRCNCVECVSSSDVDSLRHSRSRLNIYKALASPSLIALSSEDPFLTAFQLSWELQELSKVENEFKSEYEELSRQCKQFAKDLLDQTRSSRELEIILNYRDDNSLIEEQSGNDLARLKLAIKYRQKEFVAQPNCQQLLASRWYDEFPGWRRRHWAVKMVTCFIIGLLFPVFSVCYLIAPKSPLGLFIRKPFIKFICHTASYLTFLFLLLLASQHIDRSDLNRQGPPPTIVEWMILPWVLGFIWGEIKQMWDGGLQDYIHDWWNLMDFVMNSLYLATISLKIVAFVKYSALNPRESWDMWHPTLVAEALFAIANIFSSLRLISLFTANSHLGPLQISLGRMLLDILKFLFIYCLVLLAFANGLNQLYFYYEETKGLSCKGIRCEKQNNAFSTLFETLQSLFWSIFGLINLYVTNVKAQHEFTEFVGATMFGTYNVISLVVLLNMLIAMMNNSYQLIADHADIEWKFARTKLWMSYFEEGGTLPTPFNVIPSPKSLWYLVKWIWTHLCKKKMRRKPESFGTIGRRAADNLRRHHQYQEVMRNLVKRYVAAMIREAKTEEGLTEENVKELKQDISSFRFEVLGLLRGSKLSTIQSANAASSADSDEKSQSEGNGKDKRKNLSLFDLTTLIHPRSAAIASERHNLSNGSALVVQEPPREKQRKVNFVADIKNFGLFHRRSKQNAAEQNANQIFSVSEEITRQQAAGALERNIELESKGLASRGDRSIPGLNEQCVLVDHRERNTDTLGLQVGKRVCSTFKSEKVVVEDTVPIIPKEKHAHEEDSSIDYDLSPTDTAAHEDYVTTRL

Nonstructural protein 1 = Nonstructural protein 1 (Influenza A virus, UniProt Q194T2); type: functional, Influenza A virus (A/California/07/2009(H1N1))
Genome polyprotein = Genome polyprotein (dengue virus type 2, UniProt P29990); experiment: flavivirus cap methylation enzyme inhibition – biochemical, confirmation dose response, primary screen (AID 588689); type: functional
Chain of Genome polyprotein (P29990 2492-3391 limits assumed): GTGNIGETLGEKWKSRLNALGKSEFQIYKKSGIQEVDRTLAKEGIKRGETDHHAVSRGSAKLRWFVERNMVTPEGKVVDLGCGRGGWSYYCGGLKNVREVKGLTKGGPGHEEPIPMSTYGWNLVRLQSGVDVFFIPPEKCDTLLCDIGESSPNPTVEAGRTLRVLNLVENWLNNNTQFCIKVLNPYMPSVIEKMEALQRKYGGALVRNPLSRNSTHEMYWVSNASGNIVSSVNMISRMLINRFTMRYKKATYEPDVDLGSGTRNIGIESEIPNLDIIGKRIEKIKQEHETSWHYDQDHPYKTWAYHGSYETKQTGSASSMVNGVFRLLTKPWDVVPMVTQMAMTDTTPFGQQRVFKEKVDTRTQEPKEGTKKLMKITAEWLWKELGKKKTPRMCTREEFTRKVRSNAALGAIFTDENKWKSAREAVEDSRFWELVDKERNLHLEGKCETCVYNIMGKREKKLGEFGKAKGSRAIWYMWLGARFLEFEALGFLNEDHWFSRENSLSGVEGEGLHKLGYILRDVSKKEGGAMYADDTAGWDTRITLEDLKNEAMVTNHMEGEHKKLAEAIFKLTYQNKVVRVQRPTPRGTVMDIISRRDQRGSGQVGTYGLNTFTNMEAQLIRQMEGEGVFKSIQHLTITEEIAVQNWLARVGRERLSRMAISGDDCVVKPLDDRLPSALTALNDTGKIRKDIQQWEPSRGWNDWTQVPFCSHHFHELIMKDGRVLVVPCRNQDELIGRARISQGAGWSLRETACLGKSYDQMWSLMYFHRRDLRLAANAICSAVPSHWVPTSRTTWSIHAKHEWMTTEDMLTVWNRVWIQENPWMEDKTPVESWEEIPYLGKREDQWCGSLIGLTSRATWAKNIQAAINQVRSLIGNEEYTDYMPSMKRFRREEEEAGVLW

Chain of Induced myeloid leukemia cell differentiation protein Mcl-1 (Q07820 whole entry): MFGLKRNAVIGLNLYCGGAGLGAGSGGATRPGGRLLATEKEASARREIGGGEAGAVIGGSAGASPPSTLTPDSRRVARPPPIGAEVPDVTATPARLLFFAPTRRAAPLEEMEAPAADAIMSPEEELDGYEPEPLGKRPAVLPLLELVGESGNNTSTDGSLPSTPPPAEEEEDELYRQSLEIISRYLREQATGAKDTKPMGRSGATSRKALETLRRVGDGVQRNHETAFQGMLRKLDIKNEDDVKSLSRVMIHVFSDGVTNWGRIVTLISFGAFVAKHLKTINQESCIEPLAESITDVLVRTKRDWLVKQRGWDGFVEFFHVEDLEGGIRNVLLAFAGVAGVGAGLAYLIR
Chain of Paired box protein Pax-8 (Q06710 whole entry): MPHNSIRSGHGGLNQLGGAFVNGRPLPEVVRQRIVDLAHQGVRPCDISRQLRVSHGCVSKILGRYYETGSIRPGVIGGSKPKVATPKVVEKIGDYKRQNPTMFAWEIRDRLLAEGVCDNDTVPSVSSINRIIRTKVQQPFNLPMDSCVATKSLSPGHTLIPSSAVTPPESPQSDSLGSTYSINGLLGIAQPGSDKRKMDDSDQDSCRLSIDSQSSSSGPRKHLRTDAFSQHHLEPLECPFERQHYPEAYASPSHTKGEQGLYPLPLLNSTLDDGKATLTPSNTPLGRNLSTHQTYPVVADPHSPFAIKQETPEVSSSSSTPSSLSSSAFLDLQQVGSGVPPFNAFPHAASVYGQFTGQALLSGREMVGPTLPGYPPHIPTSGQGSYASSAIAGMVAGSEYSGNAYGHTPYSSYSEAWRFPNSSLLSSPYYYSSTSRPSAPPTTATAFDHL
Chain of DNA dC->dU-editing enzyme APOBEC-3A (P31941 whole entry): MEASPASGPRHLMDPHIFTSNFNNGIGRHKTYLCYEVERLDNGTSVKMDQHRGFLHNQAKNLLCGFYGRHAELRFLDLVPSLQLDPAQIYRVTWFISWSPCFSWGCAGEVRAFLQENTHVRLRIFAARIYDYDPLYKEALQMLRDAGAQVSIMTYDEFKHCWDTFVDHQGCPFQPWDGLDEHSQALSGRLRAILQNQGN
T2 sequence (Q9HC16 whole entry): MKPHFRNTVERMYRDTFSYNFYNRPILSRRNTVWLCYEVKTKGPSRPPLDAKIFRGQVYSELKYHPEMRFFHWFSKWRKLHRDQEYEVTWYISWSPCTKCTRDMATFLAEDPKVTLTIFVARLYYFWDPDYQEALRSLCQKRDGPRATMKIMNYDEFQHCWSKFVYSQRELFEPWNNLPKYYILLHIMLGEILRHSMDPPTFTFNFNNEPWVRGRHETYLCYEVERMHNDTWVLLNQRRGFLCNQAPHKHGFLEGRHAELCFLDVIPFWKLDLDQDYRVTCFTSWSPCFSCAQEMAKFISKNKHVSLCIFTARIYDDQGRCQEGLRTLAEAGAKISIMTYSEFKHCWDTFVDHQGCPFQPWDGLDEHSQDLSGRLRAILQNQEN
Chain of Large T antigen (P03070 whole entry): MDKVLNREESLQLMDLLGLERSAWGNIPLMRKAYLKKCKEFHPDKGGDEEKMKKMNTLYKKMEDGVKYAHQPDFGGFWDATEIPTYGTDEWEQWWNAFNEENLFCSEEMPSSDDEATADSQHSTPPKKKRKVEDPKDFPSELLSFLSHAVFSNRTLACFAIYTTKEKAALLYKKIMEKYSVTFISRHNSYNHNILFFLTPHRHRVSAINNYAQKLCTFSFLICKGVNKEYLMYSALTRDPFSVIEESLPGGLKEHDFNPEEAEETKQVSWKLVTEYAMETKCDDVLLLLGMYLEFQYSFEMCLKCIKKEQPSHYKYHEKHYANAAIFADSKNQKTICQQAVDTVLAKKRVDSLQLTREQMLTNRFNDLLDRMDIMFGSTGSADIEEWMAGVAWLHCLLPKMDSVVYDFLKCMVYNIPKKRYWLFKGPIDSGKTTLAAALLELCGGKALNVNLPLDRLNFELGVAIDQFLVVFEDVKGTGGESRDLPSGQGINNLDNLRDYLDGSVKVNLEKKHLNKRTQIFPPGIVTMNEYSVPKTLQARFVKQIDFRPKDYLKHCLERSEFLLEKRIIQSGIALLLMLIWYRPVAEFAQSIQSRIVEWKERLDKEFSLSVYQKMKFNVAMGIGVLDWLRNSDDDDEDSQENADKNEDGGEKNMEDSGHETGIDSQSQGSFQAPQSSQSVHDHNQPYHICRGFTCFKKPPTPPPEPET
Chain of Nonstructural protein 1 (Q194T2 whole entry): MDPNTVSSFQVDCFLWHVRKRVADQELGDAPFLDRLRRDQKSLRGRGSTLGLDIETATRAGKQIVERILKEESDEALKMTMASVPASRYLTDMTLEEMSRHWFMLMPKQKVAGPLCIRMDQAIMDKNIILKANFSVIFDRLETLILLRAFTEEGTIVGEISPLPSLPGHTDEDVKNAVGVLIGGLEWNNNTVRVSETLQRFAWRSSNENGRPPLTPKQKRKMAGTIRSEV

For `COc1ccccc1-c1ccc2c(c1)[C@@H]1[C@@H](CCN1S(=O)(=O)c1ccccc1F)[C@H](CO)N2`, the AC50 (Paired box protein Pax-8) was 6.87 µM (active) and the AC50 [1] was 20.7 µM (active).
For `COc1ccc2c(c1)[C@H]1[C@H](CO2)[C@H](c2ccccc2)[C@]2(C)C(=O)Nc3ccc(Br)cc3C(=O)N12`, the AC50 [2] was 1.59 µM (active).
For `CCC(=O)Nc1ccc(-c2ccc(N3CCC(C)CC3)nn2)cc1`, the AC50 (HeLa) was 146 µM (active).
For `O=C1CCCC2=C1C(c1ccc(O)c(O)c1)Nc1ccc3ncccc3c12` (configuration not stated), the IC50 [3] was 2.67 µM (active).
With `Fc1ccc(COc2ccc(-c3nnco3)cc2)cc1` the IC50 (Protein skinhead-1) was 5.67 µM (active).
For `C[C@H](NC(=O)C[C@@H]1C[C@@H]2c3cc(NC(=O)Nc4ccc(C(F)(F)F)cc4)ccc3O[C@@H]2[C@@H](CO)O1)c1ccccc1`, the AC50 [4] was 36.8 µM (active), the AC50 [5] was 20.6 µM (active) and the AC50 (Paired box protein Pax-8) was 13.2 µM (active). The AC50 [1] was 37.9 µM (active) and the AC50 [6] was 27.7 µM (active).
For `CCCC(C)c1nnc(NC(=O)c2cc(C(=O)OC)cc([N+](=O)[O-])c2)s1` (configuration not stated), the IC50 [7] was 19.6 µM (active) and the IC50 (Fatty acid synthase) was 7.04 µM (active).
With `O=C1C=CC(=Nc2ccc(F)cc2)O1` the AC50 [2] was 2.25 µM (active).
With `Cn1c(Cc2ccccc2)nnc1SCC(=O)Nc1ccc2c(c1)OCO2` the IC50 (Protein skinhead-1) was > 100 µM (inactive).
For `COc1ccccc1NC(=O)CN1CCC(c2nc3cc(C)ccc3[nH]2)CC1`, the EC50 [8] was > 50 µM (active).
In the case of `CCc1ccc(N2Cc3ccccc3C2)cc1`, the AC50 (HeLa) was 43.5 µM (active).
In the case of `Cn1c2ccccc2c2cc(/C=N/NC(=O)c3cc(O)cc(O)c3)ccc21`, the IC50 [9] was 41.6 µM (active), the IC50 [10] was 16.2 µM (active) and the CC50 [11] was 12.8 µM (active).
In the case of `CCCCCCCCCCOC(=O)C[N+](C)(C)CC1CCCCC1O` (configuration not stated), the EC50 [8] was > 50 µM (active).
With `CCCc1cc(C(=O)Nc2cc(Cl)ccc2O)no1` the AC50 (HeLa) was > 350 µM (inactive).
With `c1ccc(-c2cc(-c3nn4c(-c5ccco5)nnc4s3)c3ccccc3n2)cc1` the IC50 [12] was 16.6 µM (active).
In the case of `Cc1ccc(N2C(=O)NC(=O)/C(=C/c3ccc(-c4ccc(C(=O)O)c(Cl)c4)o3)C2=O)cc1`, the IC50 [12] was 5.49 µM (active) and the IC50 (Large T antigen) was 32.7 µM (active).
For `Brc1ccc2nc(-c3ccccc3)c(Cc3ccsc3)n2c1`, the IC50 (Protein skinhead-1) was > 100 µM (inactive).
In the case of `CN(C)/C=C/C=C1C(=O)CCCC1=O`, the IC50 [12] was 7.28 µM (active).
With `c1ccc2oc(N3CCNCC3)nc2c1` the EC50 [13] was 0.668 µM (active).
With `Cc1cccc(N=C2c3cc([N+](=O)[O-])ccc3-c3c2cc([N+](=O)[O-])cc3[N+](=O)[O-])c1` the IC50 (Nonstructural protein 1) was 11.7 µM (active) and the AC50 [2] was 16.6 µM (active).
For `Cc1ccc(C2N(c3ccc(Cl)c(Cl)c3)C(=O)C3CCCN32)o1` (configuration not stated), the EC50 [13] was 4.22 µM (active).
With `O=C1Oc2ccccc2C(=O)/C1=C/c1ccccc1O` the IC50 [3] was 4.18 µM (active) and the IC50 (Genome polyprotein) was 25.2 µM (active).
In the case of `CCC(=O)c1ccc(OCC(=O)Nc2cc(S(=O)(=O)N3CCCCC3)ccc2N2CCN(CC)CC2)cc1`, the IC50 [9] was 5.31 µM (active) and the IC50 [10] was 3.32 µM (active).
In the case of `COc1ccc(C)c2s/c(=N\C(=O)c3ccc(C(C)=O)cc3)n(C)c12`, the AC50 (HeLa) was 40.9 µM (active).
For `Cc1ccc(N(Cc2cc3cccc(C)c3nc2O)S(=O)(=O)c2ccccc2)c(C)c1`, the IC50 [9] was 5.56 µM (active) and the IC50 [10] was 4.45 µM (active).
In the case of `S=C(NCCc1c[nH]cn1)NC1CCCC1`, the EC50 [13] was 0.084 µM (active).
In the case of `CCOC(=O)C1(CCc2ccccc2)CCN(Cc2c(O)cccc2OC)CC1`, the EC50 [13] was 0.299 µM (active).
In the case of `CSC1=NCCN1CCOc1ccccc1`, the IC50 [9] was 8.19 µM (active) and the IC50 [10] was 6.77 µM (active).
With `O=C1CCCCC1C(=O)c1ccccc1` (configuration not stated) the IC50 [3] was 0.719 µM (not active).
For `COc1ccc(-c2nc(CN3CCC(C(=O)NC4CCCC4)CC3)c(C)o2)cc1OC`, the EC50 [13] was 0.473 µM (active).
In the case of `COc1ccc2c(c1OC)C(=O)OC2Nc1nc(-c2cc3cc(Br)ccc3oc2=O)cs1` (configuration not stated), the AC50 (HeLa) was 290 µM (active) and the CC50 [11] was 30.7 µM (active).
With `O=C(Nc1ccc(F)cc1)c1ccc2snnc2c1` the EC50 [8] was > 50 µM (active).
For `CCn1c(CNc2ccc(Cl)cc2)nnc1SCc1ccc(Cl)cc1`, the AC50 [2] was 5.01 µM (active).
In the case of `Cc1nn(CC(=O)Nc2ccc(N(C)C)cc2)c(C)c1[N+](=O)[O-]`, the IC50 [3] was 7.62 µM (not active) and the IC50 (Large T antigen) was 12.3 µM (active).
With `COc1ccc(-n2c(C)cc(C(=O)C[N+]34CCN(CC3)CC4)c2C)cc1` the IC50 [9] was 2.73 µM (active) and the IC50 [10] was 2.64 µM (active).
With `Clc1ccc(OCCCN2CCCC2)cc1Cl` the EC50 [8] was > 50 µM (active).
For `Nc1cc(N2CCOCC2)c(Cl)cc1[N+](=O)[O-]`, the EC50 [8] was > 50 µM (active).
In the case of `O=C(O)c1ccccc1-c1ccccc1C(=O)Nc1ccc2c(c1)oc(=O)c1ccccc12`, the IC50 (Protein skinhead-1) was > 100 µM (inactive) and the IC50 (Genome polyprotein) was 56.3 µM (active).
For `C[C@@H]1CN([C@H](C)CO)C(=O)c2cc(NC(=O)Nc3ccc(C(F)(F)F)cc3)ccc2O[C@@H](C)CCCCO[C@H]1CN(C)S(=O)(=O)c1ccc(Cl)cc1`, the AC50 [4] was > 70 µM (inactive), the AC50 (Paired box protein Pax-8) was 2.41 µM (active) and the AC50 [1] was 26.3 µM (active).
For `O=C(Nc1ccc(OC(F)F)c(Cl)c1)c1ccccn1`, the IC50 (Protein skinhead-1) was 51.6 µM (inactive) and the AC50 (HeLa) was 99.7 µM (active).
For `O=C(N/N=C/c1ccc(OCCCF)cc1)c1ccc(C(F)(F)F)cc1`, the IC50 [12] was 13.2 µM (active).
